In patent publication US10517889B2, “Modulators of SMAD7 expression” (Ionis Pharmaceuticals, Inc., priority 2017, dated 2019):
Strand notation (5' to 3'): a small letter for the sugar, then the base; units joined by * are phosphorothioate-linked, units joined directly phosphodiester-linked; [ ] holds rarer units or linkages, { } end groups; capitals alone tell only the bases. e = 2'-O-(2-methoxyethyl) (MOE); [5mC] = 5-methylcytosine; d = 2'-deoxy (DNA)

Tested on: human SMAD7 mRNA
Experiment: Antisense inhibition of human SMAD7 mRNA expression in Hep3B cells by 5-10-5 MOE gapmers, single concentration, electroporation, RT-PCR (Example 1, Study 1 and 2)
Type: cell-based
Conditions: for % Inhibition: Study 2, electroporation with 15,000 nM antisense oligonucleotide; for % Inhibition of SMAD7 mRNA: electroporation with 15,000 nM antisense oligonucleotide (Study 2)
Description: Antisense oligonucleotides were designed to target human SMAD7 mRNA and were tested for their effects on SMAD7 mRNA expression in vitro. Cultured Hep3B cells at a density of 20,000 cells per well were transfected using electroporation with antisense oligonucleotide ION 483663 (a 5-10-5 MOE gapmer), the sequence of which overlaps with ION 28453 (a 4-10-4 MOE gapmer) was included in these assays for comparison. ION 28453 has been previously disclosed in U.S. Pat. No. 6,159,697). After a treatment period of approximately 24 hours, RNA was isolated from the cells and SMAD7 mRNA levels were measured by quantitative real-time PCR. Primer probe set RTS5062 (forward sequence […], designated herein as SEQ ID NO: 11; reverse sequence […], designated herein as SEQ ID NO: 12; probe sequence […], designated herein as SEQ ID NO: 13) was used to measure human SMAD7 mRNA levels. SMAD7 mRNA levels were adjusted according to total RNA content, as measured by RIBOGREEN®. Results are presented as percent inhibition of SMAD7 mRNA expression, relative to untreated control cells.
The newly designed chimeric antisense oligonucleotides in the Tables below were designed as 5-10-5 MOE gapmers. The gapmers are 20 nucleosides in length, wherein the central gap segment comprises of ten 2′-deoxynucleosides and is flanked by wing segments on the 5′ direction and the 3′ direction comprising five nucleosides each. Each nucleoside in the 5′ wing segment and each nucleoside in the 3′ wing segment has a 2′-MOE modification. The internucleoside linkages throughout each gapmer are phosphorothioate (P═S) linkages. All cytosine residues throughout each gapmer are 5-methylcytosines.
“Start site” indicates the 5′-most nucleoside to which the gapmer is targeted in the human gene sequence. “Stop site” indicates the 3′-most nucleoside to which the gapmer is targeted human gene sequence.
Cultured Hep3B cells at a density of 20,000 cells per well were transfected using electroporation with 5,000 nM antisense oligonucleotide.
Cultured Hep3B cells at a density of 20,000 cells per well were transfected using electroporation with 15,000 nM antisense oligonucleotide. The antisense oligonucleotides were tested in a series of experiments that had similar culture conditions as described below.
Some of the oligonucleotides presented were complementary to SMAD7 mRNA sequences RefSeqNo. NM_001190821.1 (designated herein as SEQ ID NO: 3) or RefSeqNo. NM_001190822.1 (designated herein as SEQ ID NO: 4), and are presented in a separate table shown below.

[1] = 5-10-5 MOE gapmers targeting SEQ ID NO: 1 and 2
[2] = electroporation, 5,000 nM, approximately 24 hours, relative to untreated control cells, gapmers targeting SEQ ID NO: 1 and 2
[3] = electroporation, 15,000 nM, approximately 24 hours, relative to untreated control cells, gapmers targeting SEQ ID NO: 1 and 2
[4] = electroporation, 15,000 nM antisense oligonucleotide (Study 2), 5-10-5 MOE gapmers targeting SEQ ID NO: 1 and 2

771398 (antisense eG*eG*e[5mC]*eA*eG*dG*dA*dG*d[5mC]*dG*dG*d[5mC]*dG*dG*d[5mC]*eG*eG*e[5mC]*e[5mC]*e[5mC]) [compound 771398]
% Inhibition [1]: 48% | % inhibition of SMAD7 mRNA expression [2]: 53%

771400 (antisense e[5mC]*eG*eA*e[5mC]*eA*dG*d[5mC]*dA*dG*d[5mC]*dA*dG*d[5mC]*dA*dG*e[5mC]*eA*eG*eG*eG) [compound 771400]
% inhibition of SMAD7 mRNA expression [3]: 52%

771401 (antisense eG*e[5mC]*eA*eG*eG*d[5mC]*dG*dA*d[5mC]*dA*dG*d[5mC]*dA*dG*d[5mC]*eA*eG*e[5mC]*eA*eG) [compound 771401]
% Inhibition [1]: 21%

771402 (antisense e[5mC]*eA*eG*eG*e[5mC]*dG*d[5mC]*dA*dG*dG*d[5mC]*dG*dA*d[5mC]*dA*eG*e[5mC]*eA*eG*e[5mC]) [compound 771402]
% Inhibition [1]: 31%

771404 (antisense e[5mC]*eG*eA*eA*e[5mC]*dA*dT*dG*dA*d[5mC]*d[5mC]*dT*d[5mC]*d[5mC]*dG*e[5mC]*eA*e[5mC]*eA*e[5mC]) [compound 771404]
% inhibition of SMAD7 mRNA expression [4]: 51%

771405 (antisense eA*eG*e[5mC]*eG*eA*dA*d[5mC]*dA*dT*dG*dA*d[5mC]*d[5mC]*dT*d[5mC]*e[5mC]*eG*e[5mC]*eA*e[5mC]) [compound 771405]
% Inhibition [1]: 25%

771406 (antisense eG*eA*eG*e[5mC]*eG*dA*dA*d[5mC]*dA*dT*dG*dA*d[5mC]*d[5mC]*dT*e[5mC]*e[5mC]*eG*e[5mC]*eA) [compound 771406]
% inhibition of SMAD7 mRNA expression [3]: 55%

771408 (antisense eT*eG*e[5mC]*eT*eA*dA*dG*dG*dA*dG*d[5mC]*dG*dA*dA*d[5mC]*eA*eT*eG*eA*e[5mC]) [compound 771408]
% Inhibition [1]: 36%

771409 (antisense e[5mC]*e[5mC]*e[5mC]*e[5mC]*eT*dG*d[5mC]*dG*d[5mC]*d[5mC]*d[5mC]*dT*d[5mC]*d[5mC]*dT*e[5mC]*e[5mC]*eT*e[5mC]*eG) [compound 771409]
% Inhibition of SMAD7 mRNA [1]: 33% | % inhibition of SMAD7 mRNA expression [4]: 19%

771410 (eG*e[5mC]*eT*e[5mC]*eG*d[5mC]*d[5mC]*dT*d[5mC]*d[5mC]*dT*d[5mC]*d[5mC]*dT*d[5mC]*e[5mC]*eA*e[5mC]*e[5mC]*eT; antisense) [compound 771410]
% inhibition of SMAD7 mRNA expression [4]: 37%

771411 (e[5mC]*e[5mC]*eT*eT*e[5mC]*dT*d[5mC]*d[5mC]*d[5mC]*d[5mC]*dG*d[5mC]*dA*dG*d[5mC]*eT*e[5mC]*eG*e[5mC]*e[5mC]; antisense) [compound 771411]
% inhibition of SMAD7 mRNA expression [4]: 33%

771412 (eT*e[5mC]*eG*e[5mC]*e[5mC]*d[5mC]*d[5mC]*dT*dT*d[5mC]*dT*d[5mC]*d[5mC]*d[5mC]*d[5mC]*eG*e[5mC]*eA*eG*e[5mC]; antisense) [compound 771412]
% Inhibition [1]: 38% | % inhibition of SMAD7 mRNA expression [2]: 52%

771413 (eT*eG*eT*e[5mC]*e[5mC]*dG*dT*d[5mC]*dG*d[5mC]*d[5mC]*d[5mC]*d[5mC]*dT*dT*e[5mC]*eT*e[5mC]*e[5mC]*e[5mC]; antisense) [compound 771413]
% Inhibition [1]: 24%

771415 (eT*eG*e[5mC]*eG*e[5mC]*dT*d[5mC]*dG*dG*d[5mC]*dT*dG*dT*d[5mC]*d[5mC]*eG*eT*e[5mC]*eG*e[5mC]; antisense) [compound 771415]
% Inhibition [1]: 36%

771417 (eA*e[5mC]*e[5mC]*eG*eG*d[5mC]*d[5mC]*d[5mC]*d[5mC]*dA*dT*dG*d[5mC]*dG*d[5mC]*eT*e[5mC]*eG*eG*e[5mC]; antisense) [compound 771417]
% Inhibition of SMAD7 mRNA [1]: 24% | % inhibition of SMAD7 mRNA expression [4]: 16%

771419 (eG*eG*e[5mC]*e[5mC]*eG*d[5mC]*d[5mC]*dG*d[5mC]*d[5mC]*dA*d[5mC]*d[5mC]*dG*dG*e[5mC]*e[5mC]*e[5mC]*e[5mC]*eA; antisense) [compound 771419]
% inhibition of SMAD7 mRNA expression [4]: 37%

771420 (eG*e[5mC]*e[5mC]*e[5mC]*eG*dG*dG*d[5mC]*d[5mC]*dG*d[5mC]*d[5mC]*dG*d[5mC]*d[5mC]*eA*e[5mC]*e[5mC]*eG*eG; antisense) [compound 771420]
% Inhibition [1]: 54% | % inhibition of SMAD7 mRNA expression [2]: 1%

771421 (eG*e[5mC]*e[5mC]*e[5mC]*eT*dG*d[5mC]*d[5mC]*d[5mC]*dG*dG*dG*d[5mC]*d[5mC]*dG*e[5mC]*e[5mC]*eG*e[5mC]*e[5mC]; antisense) [compound 771421]
% Inhibition [1]: 0%

771422 (eA*eT*e[5mC]*e[5mC]*eA*dG*d[5mC]*d[5mC]*d[5mC]*dT*dG*d[5mC]*d[5mC]*d[5mC]*dG*eG*eG*e[5mC]*e[5mC]*eG; antisense) [compound 771422]
% inhibition of SMAD7 mRNA expression [3]: 27%

771423 (eG*e[5mC]*eA*eG*e[5mC]*dA*dT*d[5mC]*d[5mC]*dA*dG*d[5mC]*d[5mC]*d[5mC]*dT*eG*e[5mC]*e[5mC]*e[5mC]*eG; antisense) [compound 771423]
% Inhibition [1]: 39%

771424 (e[5mC]*e[5mC]*e[5mC]*eA*eG*dG*d[5mC]*dA*dG*d[5mC]*dA*dT*d[5mC]*d[5mC]*dA*eG*e[5mC]*e[5mC]*e[5mC]*eT; antisense) [compound 771424]
% Inhibition [1]: 36%

771425 (e[5mC]*e[5mC]*eT*eT*eG*d[5mC]*d[5mC]*d[5mC]*dA*dG*dG*d[5mC]*dA*dG*d[5mC]*eA*eT*e[5mC]*e[5mC]*eA; antisense) [compound 771425]
% Inhibition of SMAD7 mRNA [1]: 15% | % inhibition of SMAD7 mRNA expression [4]: 1%

771426 (e[5mC]*eA*e[5mC]*e[5mC]*eG*d[5mC]*d[5mC]*dT*dT*dG*d[5mC]*d[5mC]*d[5mC]*dA*dG*eG*e[5mC]*eA*eG*e[5mC]; antisense) [compound 771426]
% inhibition of SMAD7 mRNA expression [4]: 28%

771427 (e[5mC]*e[5mC]*eT*e[5mC]*eG*d[5mC]*dA*d[5mC]*d[5mC]*dG*d[5mC]*d[5mC]*dT*dT*dG*e[5mC]*e[5mC]*e[5mC]*eA*eG; antisense) [compound 771427]
% inhibition of SMAD7 mRNA expression [4]: 36%

771428 (eT*eG*eG*e[5mC]*eA*d[5mC]*d[5mC]*dT*d[5mC]*dG*d[5mC]*dA*d[5mC]*d[5mC]*dG*e[5mC]*e[5mC]*eT*eT*eG; antisense) [compound 771428]
% Inhibition [1]: 47% | % inhibition of SMAD7 mRNA expression [2]: 0%

771429 (eA*e[5mC]*e[5mC]*eT*eT*dT*dG*dG*d[5mC]*dA*d[5mC]*d[5mC]*dT*d[5mC]*dG*e[5mC]*eA*e[5mC]*e[5mC]*eG; antisense) [compound 771429]
% Inhibition [1]: 11%

771430 (e[5mC]*eG*e[5mC]*e[5mC]*e[5mC]*dG*d[5mC]*dG*dG*d[5mC]*dT*dG*dG*d[5mC]*dG*eG*eG*eT*eG*eG; antisense) [compound 771430]
% inhibition of SMAD7 mRNA expression [3]: 40%

771431 (eG*e[5mC]*e[5mC]*e[5mC]*e[5mC]*d[5mC]*dG*dG*d[5mC]*d[5mC]*dG*d[5mC]*dG*d[5mC]*d[5mC]*eG*eG*e[5mC]*eG*e[5mC]; antisense) [compound 771431]
% Inhibition [1]: 37%

771432 (e[5mC]*eA*eG*eT*eT*dT*d[5mC]*dT*dT*dG*dA*dG*d[5mC]*dA*d[5mC]*e[5mC]*eG*eA*eG*eT; antisense) [compound 771432]
% Inhibition [1]: 28%

771433 (eT*e[5mC]*e[5mC]*eT*eT*d[5mC]*dA*dG*dT*dT*dT*d[5mC]*dT*dT*dG*eA*eG*e[5mC]*eA*e[5mC]; antisense) [compound 771433]
% Inhibition of SMAD7 mRNA [1]: 28% | % inhibition of SMAD7 mRNA expression [4]: 0%

771434 (eG*e[5mC]*e[5mC]*eG*e[5mC]*dT*d[5mC]*d[5mC]*dT*dT*d[5mC]*dA*dG*dT*dT*eT*e[5mC]*eT*eT*eG; antisense) [compound 771434]
% inhibition of SMAD7 mRNA expression [4]: 27%

771435 (e[5mC]*eA*eG*e[5mC]*eT*dG*d[5mC]*d[5mC]*dG*d[5mC]*dT*d[5mC]*d[5mC]*dT*dT*e[5mC]*eA*eG*eT*eT; antisense) [compound 771435]
% inhibition of SMAD7 mRNA expression [4]: 29%

771436 (eG*eA*eG*e[5mC]*eA*dG*d[5mC]*dA*dG*d[5mC]*dT*d[5mC]*d[5mC]*dA*dG*e[5mC]*eT*eG*e[5mC]*e[5mC]; antisense) [compound 771436]
% Inhibition [1]: 27% | % inhibition of SMAD7 mRNA expression [2]: 50%
